Data: article PMC7144554, “2-(Arylamino)-6-(trifluoromethyl)nicotinic Acid Derivatives: New HIV-1 RT Dual Inhibitors Active on Viral Replication” (Molecules, 2020)

How the values were obtained:
[1] = biological target: T1, HIV-1 RT-associated RNase H activity (wt RT) (Human immunodeficiency virus type 1 group M subtype B, UniProt P04585); experiment: HIV-1 DNA polymerase-independent RNase H activity, wt RT; format: biochemical; settings: for IC50: RNase H IC50, wt RT; for percentage in parenthesis in presence of the highest concentration of inhibitor tested (RNase H) / RNase H IC50: wt RT
T1 construct: RT is a heterodimeric (p66/p51) multifunctional enzyme; made in house; host or cells: Escherichia coli strain M15
Protocol: p6HRT-prot vector was kindly provided by Dr. Stuart Le Grice Laboratory. Heterodimeric RT was expressed essentially as described. Briefly, Escherichia coli strain M15 containing the p6HRT-prot vector were grown up to an OD600 of 0.7 and induced with isopropyl β-D-1-thiogalactopyranoside (IPTG) 1.7 mM for 4 h. Cell pellets were resuspended in Lysis buffer (50 mM sodium phosphate pH 7.8, 0.5 mg/mL lysozyme), incubated on ice for 20 min, added 0.3 M final NaCl, sonicated and centrifuged at 30,000× g for 1 h. The supernatant was loaded into a Ni^2+-sepharose column pre-equilibrated with loading buffer (50 mM sodium phosphate pH 7.8, 0.3 M NaCl, 10% glycerol, 10 mM imidazole) and washed thoroughly with wash buffer (50 mM sodium phosphate pH 6.0, 0.3 M NaCl, 10% glycerol, 80 mM imidazole). RT was gradient-eluted with elute buffer (wash buffer with 0.5 M imidazole). Fractions were collected, protein purity was checked by SDS-PAGE and found to be higher than 90%. RT containing fractions were pooled and diluted 1:1 with dilute buffer (50 mM sodium phosphate pH 7.0, 10% glycerol) then loaded into a Hi-trap Heparine HP GE (Healthcare Lifescience) pre-equilibrated with 10-column volume of loading buffer 2 (50 mM sodium phosphate pH 7.0, 10% glycerol, 150 mM NaCl). Column was then washed with loading buffer 2 and RT was gradient-eluted with elute buffer 2 (50 mM sodium phosphate pH 7.0, 10% glycerol, 150 mM NaCl). Fractions were collected, protein was dialyzed and stored in buffer containing 50 mM Tris HCl pH 7.0, 25 mM NaCl, 1 mM EDTA, 50% glycerol. Catalytic activities and protein concentration were determined. Enzyme-containing fractions were pooled and aliquots were stored at −80 °C.
The RT-associated RNase H activity of wt and mutated HIV RTs was measured as described, in 100 µL reaction volume containing 50 mM Tris HCl pH 7.8, 6 mM MgCl2, 1 mM dithiothreitol (DTT), 80 mM KCl, hybrid RNA/DNA (5’-[…]-3’-Fluorescein, 5’-[…]-3’-Dabcyl), and different amounts of enzymes according to a linear range of dose-response curve—20 ng of wt RT; 50 ng K103N RT; 100 ng V108A RT; 4 ng Y181C RT; 100 ng Q475A RT; 100 ng A502F RT. The reaction mixture was incubated for 1 h at 37 °C, the reaction was stopped by addition of EDTA and products were measured with a Victor 3 (Perkin) at 490/528 nm.

[2] = Cell viability in CEM cells (MTT); format: cell-based; settings: human, MTT, 5 days
Protocol: Drug-mediated inhibition of virus-induced cytotoxicity was assayed in TZM-BL cells. Triplicate wells of 96-well plates containing 1 × 10^4 TZMbl cells were infected with HIV-1 IIIB strain at a multiplicity of infection of 0.1. Serial dilutions of drugs were added immediately after infection. Luciferase activity was measured as reported. Two days after infection, the culture medium was removed from each well and 100 µl of Bright Glo reagent (Promega, Luis Obispo, CA) was added to the cells for measurement of luminescence using a Victor 2 luminometer (Perkin). The 50% effective concentration (EC50) was defined as the concentration that caused a 50% reduction of luciferase activity (relative light units) compared to virus control wells. Cell viability in CEM cells was quantified 5 days after infection with the MTT-dye reduction method.

HIV-1 IIIB strain = experiment: Antiviral assay, HIV-1 replication in TZMbl cells (luciferase); format: cell-based; settings: TZMbl cells; for EC50: Human immunodeficiency virus 1, TZM-bl, read-out: HIV-1 EC50 TZMbl Cells
Protocol: Drug-mediated inhibition of virus-induced cytotoxicity was assayed in TZM-BL cells. […] Serial dilutions of drugs were added immediately after infection. Luciferase activity was measured as reported [67]. Two days after infection, the culture medium was removed from each well and 100 µl of Bright Glo reagent (Promega, Luis Obispo, CA) was added to the cells for measurement of luminescence using a Victor 2 luminometer (Perkin). […] Cell viability in CEM cells was quantified 5 days after infection with the MTT-dye reduction method.

[3] = Cytotoxicity in TZMbl cells; format: cell-based; settings: human

Structure (SMILES)	IC50 [1] [µM]	percentage in parenthesis in presence of the highest concentration of inhibitor tested (RNase H) [1]	CC50 at 5 days [2] [µM]	EC50 (HIV-1 IIIB strain; HIV-1 IIIB) [µM]	SI (selectivity index) (HIV-1 IIIB strain)	CC50 [3] [µM]	RNase H IC50 [1]	melting point [°C]	HIV-1 EC50 TZMbl Cells (HIV-1 IIIB strain; HIV-1 IIIB)
Cc1ccc(Cl)cc1Nc1nc(C(F)(F)F)ccc1C(=O)Oc1cccc(Cl)c1 [Compound 12]	> 100	98%	–	–	–	–	–	–	–
COc1cc(NC(=O)c2ccc(C(F)(F)F)nc2Nc2cc(Cl)ccc2C)cc(OC)c1OC [Compound 36]	19.4 ± 1.5	–	10.2	1.8 ± 0.6	1.2	2.2 ± 0.4	–	–	–
COc1cccc(NC(=O)c2ccc(C(F)(F)F)nc2Nc2cc(Cl)ccc2C)c1 [Compound 33]	> 100	54%	–	–	–	–	abolished the activity	–	–
COc1cc(CNC(=O)c2ccc(C(F)(F)F)nc2Nc2cc(Cl)ccc2C)ccc1O [Compound 47, 2-((5-Chloro-2-methylphenyl)amino)-N-(4-hydroxy-3-methoxybenzyl)-6-(trifluoromethyl)nicotinamide]	18.2 ± 1.7	–	17.4	> 10	–	15 ± 3	–	142 to 143	–
COc1ccc(NC(=O)c2ccc(C(F)(F)F)nc2Nc2cc(Cl)ccc2C)cc1Cl [Compound 32]	> 100	>100 (100%)	–	–	–	–	–	–	–
Cc1ccc(Cl)cc1Nc1nc(C(F)(F)F)ccc1C(=O)Oc1ccc(O)cc1 [Compound 18, 4-Hydroxyphenyl 2-((5-chloro-2-methylphenyl)amino)-6-(trifluoromethyl)nicotinate]	20 ± 1.3	–	–	–	–	–	–	184 to 186	–
Cc1ccc(Cl)cc1Nc1nc(C(F)(F)F)ccc1C(=O)Nc1cccc(Cl)c1 [Compound 30]	4 ± 2.2	–	8.4	> 3.9	–	3.9 ± 0.9	–	–	–
Cc1cccc(NC(=O)c2ccc(C(F)(F)F)nc2Nc2cc(Cl)ccc2C)c1 [Compound 29]	8.9 ± 0.1	–	6.3	2.5 ± 0.4	1.6	3.9 ± 0.9	–	–	–
COc1cc(NC(=O)c2ccc(C(F)(F)F)nc2Nc2cc(Cl)ccc2C)cc(OC)c1 [Compound 34]	17.5 ± 3.9	–	10.4	2 ± 0.3	2.6	5.3 ± 0.6	–	–	–
Cc1ccc(Cl)cc1Nc1nc(C(F)(F)F)ccc1C(=O)Oc1ccc(Cl)cc1Cl [Compound 14]	> 100	98%	–	–	–	–	abolished the activity	–	–
Cc1ccc(Cl)cc1Nc1nc(C(F)(F)F)ccc1C(=O)Oc1ccccc1Cl [Compound 11]	> 100	92%	–	–	–	–	–	–	–
Cc1ccc(Cl)cc1Nc1nc(C(F)(F)F)ccc1C(=O)NCc1ccccc1Cl [Compound 38, N-(2-chlorobenzyl)-2-((5-chloro-2-methylphenyl)amino)-6-(trifluoromethyl)nicotinamide]	19.4 ± 1.1	–	12.5	> 5.7	–	5.7 ± 0.7	–	–	–
COc1cc(OC(=O)c2ccc(C(F)(F)F)nc2Nc2cc(Cl)ccc2C)cc(OC)c1OC [Compound 22, 3,4,5-Trimethoxyphenyl 2-((5-chloro-2-methylphenyl)amino)-6-(trifluoromethyl)nicotinate]	17.3 ± 1.3	–	–	–	–	–	–	138 to 140	–
Cc1ccc(Cl)cc1Nc1nc(C(F)(F)F)ccc1C(=O)NCc1ccc(F)cc1 [Compound 41, 2-((5-Chloro-2-methylphenyl)amino)-N-(4-fluorobenzyl)-6-(trifluoromethyl)nicotinamide]	23.3 ± 3.1	–	11.6	> 6	–	6 ± 0.6	–	–	–
COc1ccc(OC(=O)c2ccc(C(F)(F)F)nc2Nc2cc(Cl)ccc2C)cc1OC [Compound 20, 3,4-Dimethoxyphenyl-2-((5-chloro-2-methylphenyl)amino)-6-(trifluoromethyl)nicotinate]	21 ± 11	–	–	–	–	–	–	–	–
Cc1ccc(Cl)cc1Nc1nc(C(F)(F)F)ccc1C(=O)Nc1ccc(Cl)cc1Cl [Compound 31]	8.8 ± 0.5	–	7.8	> 4.7	–	4.7 ± 1.7	–	–	–
Cc1ccc(Cl)cc1Nc1nc(C(F)(F)F)ccc1C(=O)NO [Compound 25, 2-((5-Chloro-2-methylphenyl)amino)-N-hydroxy-6-(trifluoromethyl)nicotinamide]	0.77 ± 0.06	–	35	> 10	–	14 ± 2.8	–	154 to 155	inactive
Cc1ccc(Cl)cc1Nc1nc(C(F)(F)F)ccc1C(=O)NCc1ccc(Cl)cc1Cl [Compound 45, 2-((5-Chloro-2-methylphenyl)amino)-N-(2,4-dichlorobenzyl)-6-(trifluoromethyl)nicotinamide]	19.3 ± 0.6	–	9.15	> 10	–	5 ± 0.6	–	153 to 155	–
COc1ccc(CNC(=O)c2ccc(C(F)(F)F)nc2Nc2cc(Cl)ccc2C)cc1 [Compound 43, 2-((5-Chloro-2-methylphenyl)amino)-N-(4-methoxybenzyl)-6-(trifluoromethyl)nicotinamide]	30.4 ± 3.9	–	20	> 10	–	13.2 ± 1.3	–	–	–
COc1cccc(OC(=O)c2ccc(C(F)(F)F)nc2Nc2cc(Cl)ccc2C)c1 [Compound 19]	> 100	80%	–	–	–	–	–	–	–
COc1ccc(NC(=O)c2ccc(C(F)(F)F)nc2Nc2cc(Cl)ccc2C)cc1OC [Compound 35]	22.4 ± 4	–	–	–	–	–	–	–	–
Cc1ccc(Cl)cc1Nc1nc(C(F)(F)F)ccc1C(=O)Oc1c(Cl)cc(Cl)cc1Cl [Compound 15]	31.8 ± 3.5	–	–	–	–	–	–	–	–
Cc1ccc(Cl)cc1Nc1nc(C(F)(F)F)ccc1C(=O)N1CCN(c2ccccc2)CC1 [Compound 48, (2-((5-Chloro-2-methylphenyl)amino)-6-(trifluoromethyl)pyridin-3-yl)(4-phenylpiperazin-1-yl)methanone]	> 100	>100 (100%)	–	–	–	–	–	118 to 120	–
Cc1ccc(Cl)cc1Nc1nc(C(F)(F)F)ccc1C(=O)Nc1ccc(C(F)(F)F)cc1 [Compound 37]	7.8 ± 1.2	–	4.3	> 2.2	–	2.2 ± 0.2	–	–	–
Cc1ccc(Cl)cc1Nc1nc(C(F)(F)F)ccc1C(N)=O [Compound 6]	> 100	87%	–	–	–	–	completely inactive	–	–
Cc1ccc(CNC(=O)c2ccc(C(F)(F)F)nc2Nc2cc(Cl)ccc2C)cc1 [Compound 44, 2-((5-Chloro-2-methylphenyl)amino)-N-(4-methylbenzyl)-6-(trifluoromethyl)nicotinamide]	21.3 ± 0.5	–	3.5	> 1.1	–	1.1	–	–	–
CSc1ccc(NC(=O)c2ccc(C(F)(F)F)nc2Nc2cc(Cl)ccc2C)cc1 [Compound 28, 2-((5-Chloro-2-methylphenyl)amino)-N-(4-(methylthio)phenyl)-6-(trifluoromethyl)nicotinamide]	5.9 ± 0.9	–	–	–	–	–	–	–	–
Cc1ccc(Cl)cc1Nc1nc(C(F)(F)F)ccc1C(=O)Nc1cccnc1 [Compound 27]	25 ± 4.9	–	16.2	> 5.8	–	5.8 ± 0.8	–	–	–
CCOC(=O)CNC(=O)c1ccc(C(F)(F)F)nc1Nc1cc(Cl)ccc1C [Compound 26, Ethyl 2-(2-((5-chloro-2-methylphenyl)amino)-6-(trifluoromethyl)nicotinamido)acetate]	> 100	>100 (100%)	–	–	–	–	–	128 to 130	–
